Experiments:
786-0 = experiment: inhibition of the growth of renal cancer(786-0) cell line; format: functional; conditions: Homo sapiens
A549 [1] = experiment: inhibition of the growth of non-small-cell lung cancer (A549/ATCC) cell line; format: functional; conditions: Homo sapiens
A549 [2] = experiment: Inhibition of the growth of non-small-cell lung cancer (A549/ATCC) cell line at 0.01 uM; format: functional; conditions: Homo sapiens
CAKI-1 = experiment: inhibition of the growth of renal cancer(CAKI-1) cell line; format: functional; conditions: Homo sapiens
DU-145 = experiment: inhibition of the growth of prostate cancer(DU-145) cell line; format: functional; conditions: Homo sapiens
HCT-15 [3] = experiment: Inhibition of the growth of colon cancer(HCT-15) cell line at 0.01 uM; format: functional; conditions: Homo sapiens
HCT-15 [4] = experiment: inhibition of the growth of colon cancer(HCT-15) cell line; format: functional; conditions: Homo sapiens
HCT-116 [5] = experiment: inhibition of the growth of colon cancer(HCT116) cell line; format: functional; conditions: Homo sapiens
HCT-116 [6] = experiment: Inhibition of the growth of colon cancer(HCT116) cell line at 0.01 uM; format: functional; conditions: Homo sapiens
IGROV-1 [7] = experiment: inhibition of the growth of ovarian cancer(IGROVI) cell line; format: functional; conditions: Homo sapiens
KM12 = experiment: inhibition of the growth of colon cancer(KM-12) cell line; format: functional; conditions: Homo sapiens
MOLT-4 = experiment: inhibition of the growth of leukemia (MOLT-4) cell line; format: functional; conditions: Homo sapiens
NCI/ADR-RES [8] = experiment: inhibition of the growth of breast cancer (MCF7/ADR-RES) cell line; format: functional; conditions: Homo sapiens
NCI/ADR-RES [9] = experiment: Inhibition of the growth of breast cancer (MCF7/ADR-RES) cell line at 0.01 uM; format: functional; conditions: Homo sapiens
M14 = experiment: inhibition of the growth of melanoma cancer (M14) cell line; format: functional; conditions: Homo sapiens
MDA-N [10] = experiment: inhibition of the growth of breast cancer(MDA-N) cell line; format: functional; conditions: Homo sapiens
MDA-N [11] = experiment: Inhibition of the growth of breast cancer(MDA-N) cell line at 0.01 uM; format: functional; conditions: Homo sapiens
MDA-MB-435 [12] = experiment: Inhibition of the growth of breast cancer (MDA-MB-435) cell line at 0.01 uM; format: functional; conditions: Homo sapiens
MDA-MB-435 [13] = experiment: inhibition of the growth of breast cancer (MDA-MB-435) cell line; format: functional; conditions: Homo sapiens
MCF7 = experiment: inhibition of the growth of breast cancer (MCF-7) cell line; format: functional; conditions: Homo sapiens
NCI-H460 [14] = experiment: inhibition of the growth of non-small-cell lung cancer (NCI-H460) cell line; format: functional; conditions: Homo sapiens
NCI-H522 = experiment: inhibition of the growth of non-small-cell lung cancer (NCI-H522) cell line; format: functional; conditions: Homo sapiens
NCI-H322M = experiment: inhibition of the growth of non-small-cell lung cancer (NCI-H322M) cell line; format: functional; conditions: Homo sapiens
OVCAR-8 [15] = experiment: inhibition of the growth of ovarian cancer(OVCAR-8) cell line; format: functional; conditions: Homo sapiens
NCI-H460 [16] = experiment: Inhibition of the growth of non-small-cell lung cancer (NCI-H460) cell line at 0.01 uM; format: functional; conditions: Homo sapiens
NCI-H23 = experiment: inhibition of the growth of non-small-cell lung cancer (NCI-H23) cell line; format: functional; conditions: Homo sapiens
RPMI-8226 [17] = experiment: Inhibition of the growth of leukemia (RPMI-8226) cell line at 0.01 uM; format: functional; conditions: Homo sapiens
RPMI-8226 [18] = experiment: inhibition of the growth of leukemia (RPMI-8226) cell line; format: functional; conditions: Homo sapiens
SF-268 = experiment: inhibition of the growth of CNS cancer(SF-268) cell line; format: functional; conditions: Homo sapiens
SF-295 [19] = experiment: inhibition of the growth of CNS cancer(SF-295) cell line; format: functional; conditions: Homo sapiens
SF-295 [20] = experiment: Inhibition of the growth of CNS cancer(SF-295) cell line at 0.01 uM; format: functional; conditions: Homo sapiens
SNB-19 = experiment: inhibition of the growth of CNS cancer(SNB-19) cell line; format: functional; conditions: Homo sapiens
SF-539 = experiment: inhibition of the growth of CNS cancer(SF-539) cell line; format: functional; conditions: Homo sapiens
SR = experiment: inhibition of the growth of leukemia(SR) cell line; format: functional; conditions: Homo sapiens
SK-MEL-5 [21] = experiment: inhibition of the growth of melanoma cancer (SK-MEL-5) cell line; format: functional; conditions: Homo sapiens
SK-MEL-5 [22] = experiment: Inhibition of the growth of melanoma cancer (SK-MEL-5) cell line at 0.01 uM; format: functional; conditions: Homo sapiens
UO-31 = experiment: inhibition of the growth of renal cancer(UO-31) cell line; format: functional; conditions: Homo sapiens
IGROV-1 [23] = experiment: Inhibition of the growth of ovarian cancer(IGROVI) cell line at 0.01 uM; format: functional; conditions: Homo sapiens
OVCAR-8 [24] = experiment: Inhibition of the growth of ovarian cancer(OVCAR-8) cell line at 0.01 uM; format: functional; conditions: Homo sapiens
[25] = target: T1, Bifunctional dihydrofolate reductase-thymidylate synthase (Toxoplasma gondii, UniProt Q07422)
T1 sequence (Q07422 whole entry): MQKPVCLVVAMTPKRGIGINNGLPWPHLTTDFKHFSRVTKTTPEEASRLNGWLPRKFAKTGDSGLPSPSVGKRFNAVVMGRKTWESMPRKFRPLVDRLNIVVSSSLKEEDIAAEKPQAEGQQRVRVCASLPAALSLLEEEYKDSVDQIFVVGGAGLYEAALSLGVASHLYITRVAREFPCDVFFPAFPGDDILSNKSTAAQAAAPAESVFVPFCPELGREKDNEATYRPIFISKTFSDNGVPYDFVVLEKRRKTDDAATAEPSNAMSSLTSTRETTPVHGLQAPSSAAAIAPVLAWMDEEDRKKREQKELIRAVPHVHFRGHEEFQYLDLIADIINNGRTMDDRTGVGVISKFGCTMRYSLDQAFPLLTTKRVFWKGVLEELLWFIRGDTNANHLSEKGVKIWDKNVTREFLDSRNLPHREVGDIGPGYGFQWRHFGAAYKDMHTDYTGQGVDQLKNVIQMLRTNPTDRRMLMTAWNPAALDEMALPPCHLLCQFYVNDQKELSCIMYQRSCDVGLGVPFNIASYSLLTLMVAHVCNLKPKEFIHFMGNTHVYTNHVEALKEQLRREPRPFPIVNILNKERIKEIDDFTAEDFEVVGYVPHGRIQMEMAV
Description: Inhibitory activity against dihydrofolate reductase (DHFR) from Toxoplasma gondii

Dihydrofolate reductase [26] = target: T2, Dihydrofolate reductase (Pneumocystis carinii, UniProt P16184)
T2 sequence (P16184 whole entry): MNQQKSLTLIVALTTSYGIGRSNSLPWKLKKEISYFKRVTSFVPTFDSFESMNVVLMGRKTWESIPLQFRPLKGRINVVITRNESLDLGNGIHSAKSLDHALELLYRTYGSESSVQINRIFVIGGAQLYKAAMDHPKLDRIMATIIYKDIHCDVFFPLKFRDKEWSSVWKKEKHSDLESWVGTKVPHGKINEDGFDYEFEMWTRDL
Description: Inhibitory activity against dihydrofolate reductase (DHFR) from Pneumocystis carinii

Dihydrofolate reductase [27] = target: T3, Dihydrofolate reductase (Rattus norvegicus, UniProt Q920D2)
T3 sequence (Q920D2 whole entry): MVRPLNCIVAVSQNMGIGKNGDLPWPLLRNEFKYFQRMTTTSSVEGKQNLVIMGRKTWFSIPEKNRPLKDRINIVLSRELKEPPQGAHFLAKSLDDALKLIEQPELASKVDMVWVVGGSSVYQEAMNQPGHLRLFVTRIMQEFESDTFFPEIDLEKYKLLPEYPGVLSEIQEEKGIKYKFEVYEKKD
Description: Inhibitory activity against dihydrofolate reductase (DHFR) from rat liver

GI50 (786-0): 220 nM
GI50 (A549 [1]): < 10 nM
GI50 (DU-145): 120 nM
GI50 (HCT-15 [4]): < 10 nM
GI50 (HCT-116 [5]): < 10 nM
GI50 (MOLT-4): 60 nM
GI50 (MDA-MB-435 [13]): < 10 nM
GI50 (MCF7): 140 nM
GI50 (NCI-H460 [14]): < 10 nM
GI50 (NCI-H522): 60 nM
GI50 (NCI-H322M): 70 nM
GI50 (OVCAR-8 [15]): < 10 nM
GI50 (NCI-H23): 30 nM
GI50 (RPMI-8226 [18]): < 10 nM
GI50 (SK-MEL-5 [21]): < 10 nM
IC50 (Dihydrofolate reductase [26]): 99.5 nM
IC50 (Dihydrofolate reductase [27]): 1.3 nM
Structure (SMILES): CN(c1ccccc1)c1ccc2nc(N)nc(N)c2n1
inhibition at 0.01 µM (A549 [2]): 65%
GI50 (CAKI-1): 10 nM
inhibition at 0.01 µM (HCT-15 [3]): 66%
inhibition at 0.01 µM (HCT-116 [6]): 80%
GI50 (IGROV-1 [7]): < 10 nM
GI50 (KM12): 190 nM
GI50 (NCI/ADR-RES [8]): < 10 nM
inhibition at 0.01 µM (NCI/ADR-RES [9]): 83%
GI50 (M14): 10 nM
GI50 (MDA-N [10]): < 10 nM
inhibition at 0.01 µM (MDA-N [11]): 68%
inhibition at 0.01 µM (MDA-MB-435 [12]): 73%
inhibition at 0.01 µM (NCI-H460 [16]): 80%
inhibition at 0.01 µM (RPMI-8226 [17]): 59%
GI50 (SF-268): 10 nM
GI50 (SF-295 [19]): < 10 nM
inhibition at 0.01 µM (SF-295 [20]): 59%
GI50 (SNB-19): 40 nM
GI50 (SF-539): < 10 nM
GI50 (SR): 50 nM
inhibition at 0.01 µM (SK-MEL-5 [22]): 59%
GI50 (UO-31): 30 nM
inhibition at 0.01 µM (IGROV-1 [23]): 53%
inhibition at 0.01 µM (OVCAR-8 [24]): 91%
IC50 [25]: 2.2 nM
